Test results as given in ChEMBL document CHEMBL5604063, “ASAP - DENV-2 NS2B-NS3 protease fluorescence dose response” (2024).
Values joined by “and” are separate entries in the source; they are usually repeats but may differ in a detail not shown here. Equal entries are not always repeated.

Target: Genome polyprotein (dengue virus type 2, UniProt P29990)
Assay type: functional, Thailand/16681/1984

Chain of Genome polyprotein (P29990 1346-1475 limits assumed): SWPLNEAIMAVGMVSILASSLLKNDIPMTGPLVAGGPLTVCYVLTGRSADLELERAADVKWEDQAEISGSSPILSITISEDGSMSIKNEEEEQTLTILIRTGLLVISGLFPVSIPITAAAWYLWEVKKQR
Chain of Genome polyprotein (P29990 1476-2093 limits assumed): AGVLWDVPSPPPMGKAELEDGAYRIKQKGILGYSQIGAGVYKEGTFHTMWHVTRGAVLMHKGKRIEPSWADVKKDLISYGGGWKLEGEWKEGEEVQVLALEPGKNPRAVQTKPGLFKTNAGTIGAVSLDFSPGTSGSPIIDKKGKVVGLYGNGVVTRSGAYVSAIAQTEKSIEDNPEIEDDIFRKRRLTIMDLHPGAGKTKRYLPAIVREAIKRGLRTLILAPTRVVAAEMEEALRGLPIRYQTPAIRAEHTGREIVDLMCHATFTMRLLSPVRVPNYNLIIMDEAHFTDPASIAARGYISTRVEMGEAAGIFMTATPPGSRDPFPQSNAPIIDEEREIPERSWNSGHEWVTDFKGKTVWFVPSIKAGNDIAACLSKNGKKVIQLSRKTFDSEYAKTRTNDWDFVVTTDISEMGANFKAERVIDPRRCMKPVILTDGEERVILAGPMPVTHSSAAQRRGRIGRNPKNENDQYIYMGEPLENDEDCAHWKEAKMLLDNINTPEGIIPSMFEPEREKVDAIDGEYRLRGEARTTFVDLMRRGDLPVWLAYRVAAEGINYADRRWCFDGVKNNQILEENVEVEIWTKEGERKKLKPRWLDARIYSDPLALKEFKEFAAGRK

Compound	IC50
NCc1nccc(NC(=O)c2cc(Cl)cc(NC(=O)OCc3ccccc3)c2)n1	> 99.5 µM
CCn1cc(C(=O)Nc2ccccc2)nc(N2CC[C@@H](CO)C2)c1=O	> 99.5 µM
NCc1cccc(NC(=O)c2cc(F)cc(NC(=O)OCc3ccccc3)c2F)c1	> 99.5 µM
c1cnc2c(c1)CC[C@@H]2NCc1n[nH]c2ccccc12	> 99.5 µM
C[C@@H](Cc1c[nH]c2ccccc12)N1CCC(c2nc3ccccc3s2)CC1	> 99.5 µM
O=C(Nc1cc(Cl)cc(C(=O)Nc2cccc(C3CCNCC3)c2)c1)OCc1ccccc1	20.5 µM and 20.3 µM
Cc1nocc1S(=O)(=O)N[C@H](C(=O)Nc1cccc(CN)c1)c1ccc(OCc2ccccc2)cc1	> 99.5 µM
COc1ccc(C)cc1S(=O)(=O)N[C@@H](C(=O)Nc1cccc(CN)c1)c1ccc(OCc2ccccc2)cc1	96 µM
NCc1cccc(NC(=O)[C@@H](NS(=O)(=O)CCc2ccccc2)c2ccc(OCc3ccccc3)cc2)c1	72.8 µM
NC1(c2cccc(NC(=O)c3cc(Cl)cc(NC(=O)OCc4ccccc4)c3)c2)CCC1	> 99.5 µM
Cc1ccc(-c2nc(NC(=O)[C@H](NC(=O)OCc3ccccc3)c3ccc(OCc4ccccc4)cc3)sc2CN(C)C)cc1	> 99.5 µM
CN(C)Cc1cc(NC(=O)c2cc(Cl)cc(NC(=O)OCc3ccccc3)c2)sn1	> 99.5 µM
NCc1cccc(NC(=O)c2cc(Cl)cc(CN)c2)c1	> 99.5 µM
NCc1cccc(NC(=O)[C@H](NC(=O)OCc2ccccc2)C2CCNCC2)c1	> 99.5 µM
NCc1cc(S(=O)(=O)Nc2ccc(Cl)cc2C(=O)O)ccc1Oc1ccccc1	> 99.5 µM
O=C(O)c1cc(Cl)cc(Cl)c1S(=O)(=O)Nc1ccc(Oc2ccccc2Cl)cc1	> 99.5 µM
CCNC(=O)c1cn(CC)c(=O)c(N2CC[C@@H](CO)C2)n1	> 99.5 µM
NCc1cccc(NC(=O)[C@H](NC(=O)OCc2ccccc2)c2cccc(OCC3CCOCC3)c2)c1	> 99.5 µM
O=C(O)c1cc(Cl)ccc1NS(=O)(=O)c1ccc(-c2cscn2)cc1	87.5 µM
C[C@H]1CN(C(=O)c2cccc3c(CN)cccc23)CCC12CCNCC2	> 99.5 µM
CN1CCc2nc(NC(=O)c3cc(Cl)cc(NC(=O)OCc4ccccc4)c3)sc2C1	> 99.5 µM
COc1cc(NC(=O)OCc2ccccc2)nc(C(=O)Nc2cccc(CN)c2)c1	> 99.5 µM
CCn1nccc1S(=O)(=O)N[C@@H](C(=O)Nc1cccc(CN)c1)c1ccc(OCc2ccccc2)cc1	> 99.5 µM
O=C(O)c1cc(Cl)ccc1S(=O)(=O)N[C@H]1CC[C@@H](Oc2cnccn2)CC1	> 99.5 µM
COc1ncccc1S(=O)(=O)N[C@H](C(=O)Nc1cccc(CN)c1)c1ccc(OCc2ccccc2)cc1	> 99.5 µM

Compound	IC50
Cn1ccc(CS(=O)(=O)N[C@@H](C(=O)Nc2cccc(CN)c2)c2ccc(OCc3ccccc3)cc2)n1	> 99.5 µM
O=S(=O)(c1cccnc1)N1CCN(Cc2c[nH]c3ccccc23)CC1	> 99.5 µM
COC(=O)[C@H](NC(=O)OC(C)(C)C)c1ccc(-c2csc(C)c2)cc1	> 99.5 µM
Fc1cc(F)c2[nH]cc(CN3CCC(c4cscn4)CC3)c2c1F	> 99.5 µM
CC1=NN(c2ccc(NS(=O)(=O)c3ccc(Cl)cc3C(=O)O)cn2)C(=O)C1	> 99.5 µM
Cn1nc2c(c1NC(=O)[C@@H](NC(=O)OCc1ccccc1)c1ccc(OCc3ccccc3)cc1)CNC2	> 99.5 µM
CS(=O)(=O)c1cc(NC(=O)OCc2ccccc2)cc(C(=O)Nc2cccc(CN)c2)c1	> 99.5 µM
COC(=O)C1(S(=O)(=O)N[C@H](C(=O)Nc2cccc(CN)c2)c2ccc(OCc3ccccc3)cc2)CCC1	> 99.5 µM
c1nc(C2CCN(Cc3n[nH]c4c3CCC4)CC2)cs1	> 99.5 µM
CCC1([C@H](NC(=O)OCc2ccccc2)C(=O)NCc2cccc(CN)c2)CCCCC1	> 99.5 µM
NCCc1ccc(NC(=O)c2cc(Cl)cc(NC(=O)OCc3ccccc3)c2)cc1	30.9 µM
CC(C)(C)OC(=O)NCc1cccc(NC(=O)c2cc(N)cc(Cl)c2)c1	> 99.5 µM
Cc1c(NC(=O)OCc2ccccc2)cc(C(=O)Nc2cccc(CN)c2)cc1C(F)(F)F	91.4 µM
CN1CCn2nc(NC(=O)c3cc(Cl)cc(NC(=O)OCc4ccccc4)c3)cc2C1	> 99.5 µM
c1nc(C2CCN(Cc3n[nH]c4c3COCC4)CC2)cs1	> 99.5 µM
COc1ccc([C@@H](CC(=O)Nc2cccc(CN)c2)NC(=O)OCc2ccccc2)cc1Br	50.1 µM
COC(=O)c1n[nH]cc1CN1CCC(c2nc3ccccc3s2)CC1	> 99.5 µM
CC(C)N1CCc2nc(NC(=O)c3cc(Cl)cc(NC(=O)OCc4ccccc4)c3)sc2C1	> 99.5 µM
O=C(O)c1cc(Cl)ccc1S(=O)(=O)Nc1ccc(CN2CCCCC2)cc1	> 99.5 µM
CC(C)c1cc(S(=O)(=O)N[C@H](C(=O)Nc2cccc(CN)c2)c2ccc(OCc3ccccc3)cc2)on1	> 99.5 µM
Cc1nc(CCCNCc2n[nH]c3ccccc23)cs1	> 99.5 µM
c1ccc(-c2c[nH]nc2CN2CCC(c3cscn3)CC2)cc1	> 99.5 µM
NCc1cccc(NC(=O)[C@@H](NS(=O)(=O)c2ccccn2)c2ccc(OCc3ccccc3)cc2)c1	> 99.5 µM
c1ccc2sc(C3CCN(CCc4c[nH]c5ccccc45)CC3)nc2c1	> 99.5 µM
NC[C@H]1CC[C@H](NC(=O)c2cc(Cl)cc(NC(=O)OCc3ccccc3)c2)CC1	> 99.5 µM

Compound	IC50
NCc1cccc(NC(=O)[C@@H]2CCC[C@H](NC(=O)OCc3ccccc3)C2)c1	> 99.5 µM
Cn1nc2c(c1NC(=O)c1cc(Cl)cc(NC(=O)OCc3ccccc3)c1)CNC2	> 99.5 µM
c1ccc2c(CN[C@H]3CCc4ncsc4C3)n[nH]c2c1	> 99.5 µM
NCc1cc(S(=O)(=O)Nc2ccc(Cl)cc2C(=O)NCC(F)(F)F)ccc1Oc1ccccc1	> 99.5 µM
O=C(O)c1cc(Cl)ccc1S(=O)(=O)NC1CCN(S(=O)(=O)c2cccs2)CC1	> 99.5 µM
NCCNC(=O)c1cc(Cl)cc(NC(=O)OCc2ccccc2)c1	> 99.5 µM
NC1CCN(C(=O)c2cc(Cl)cc(NC(=O)OCc3ccccc3)c2)CC1	> 99.5 µM
c1ccc(-c2ncc(CN3CCC(c4nc5ccccc5s4)CC3)[nH]2)cc1	> 99.5 µM
C[C@@H](N)c1ccc(NC(=O)c2cc(Cl)cc(NC(=O)OCc3ccccc3)c2)cc1	48.2 µM
CC1(C)CNC[C@H](C(=O)Nc2cccc(CN)c2)C1	> 99.5 µM
CCn1cc(C(=O)N2CCN(C)CC2)nc(N2CC[C@@H](CO)C2)c1=O	> 99.5 µM
O=C(O)c1cc(Cl)ccc1S(=O)(=O)Nc1ccc(S(=O)(=O)Nc2ccccc2)cc1	> 99.5 µM
c1cc(CN2CCC(c3cscn3)CC2)[nH]n1	> 99.5 µM
O=C(O)c1cc(Cl)ccc1S(=O)(=O)N[C@H]1CC[C@H](Oc2cnccn2)CC1	> 99.5 µM
NCc1cccc(NC(=O)[C@H](NS(=O)(=O)c2cccnc2)c2ccc(OCc3ccccc3)cc2)c1	> 99.5 µM
N#Cc1ccc2[nH]cc(CN3CCC(c4cscn4)CC3)c2c1	> 99.5 µM
NCc1cccc(NC(=O)[C@H](NC(=O)OCc2ccccc2)c2cccc(OCc3ncccn3)c2)c1	> 99.5 µM
CCn1c(=O)c(N2CCC[C@H]2c2nncs2)nc2ccccc21	> 99.5 µM
COc1cc(NC(=O)OCc2ccccc2)cc(C(=O)Nc2cccc(CN)c2)c1	> 99.5 µM
Cc1cc(CN(C)C)cc(NC(=O)[C@H](NC(=O)OCc2ccccc2)c2ccc(OCc3ccccc3)cc2)c1	> 99.5 µM
NCc1cccc(NC(=O)c2cc(NC(=O)OCc3ccccc3)cc(Cl)c2Cl)c1	87.3 µM
CCn1nc(-c2ccccc2)cc1NS(=O)(=O)c1ccc(Cl)cc1C(=O)O	> 99.5 µM
C[C@H]1CNC[C@H](C(=O)Nc2cccc(CN)c2)C1	> 99.5 µM
Cc1nn(C)cc1S(=O)(=O)N[C@@H](C(=O)Nc1cccc(CN)c1)c1ccc(OCc2ccccc2)cc1	> 99.5 µM
N#Cc1cccc2c(CN3CCC(c4cscn4)CC3)c[nH]c12	> 99.5 µM

Compound	IC50
Cn1ccc(Nc2ccc(S(=O)(=O)Nc3ccc(Cl)cc3C(=O)O)cn2)n1	> 99.5 µM
Cn1ccnc1S(=O)(=O)N[C@@H](C(=O)Nc1cccc(CN)c1)c1ccc(OCc2ccccc2)cc1	> 99.5 µM
CC1(N2CCC(NS(=O)(=O)c3ccc(Cl)cc3C(=O)O)CC2)CCCCC1	> 99.5 µM
NCc1ccc(Oc2ccc(S(=O)(=O)Nc3ccc(Cl)cc3C(=O)NCC(F)(F)F)cc2)cc1	> 99.5 µM
Cc1ccc(CN(C)C)cc1NC(=O)[C@@H](NC(=O)OCc1ccccc1)c1ccc(OCc2ccccc2)cc1	> 99.5 µM
NCc1cccc(NC(=O)[C@@H](NS(=O)(=O)c2ccccc2F)c2ccc(OCc3ccccc3)cc2)c1	> 99.5 µM
c1ccc2c(CN[C@H]3CCc4c([nH]c5ccccc45)C3)n[nH]c2c1	> 99.5 µM
CCS(=O)(=O)N[C@@H](C(=O)Nc1cccc(CN)c1)c1ccc(OCc2ccccc2)cc1	> 99.5 µM
CN(C(=O)c1cc(Cl)cc(NC(=O)OCc2ccccc2)c1)c1ccc(CN)cc1	> 99.5 µM
CC(=O)N1CCC[C@H]1C(=O)N[C@@H](C(=O)Nc1cccc(CN)c1)c1ccc(OCc2ccccc2)cc1	> 99.5 µM
CC(C)N1CCc2nc(NC(=O)[C@H](NC(=O)OCc3ccccc3)c3ccc(OCc4ccccc4)cc3)sc2C1	> 99.5 µM
Cn1nccc1CN1CCC(NS(=O)(=O)c2ccc(Cl)cc2C(=O)O)CC1	> 99.5 µM
N#Cc1ccccc1O[C@H]1CC[C@H](NS(=O)(=O)c2ccc(Cl)cc2C(=O)O)CC1	> 99.5 µM
NCc1cccc(NC(=O)[C@@H]2C[C@H](NC(=O)OCc3ccccc3)[C@H]3C[C@H]32)c1	> 99.5 µM
O=C(Nc1cccnc1)C1CCN(Cc2c[nH]c3ccccc23)CC1	> 99.5 µM
NCc1cccc(NC(=O)[C@H](NS(=O)(=O)C[C@H]2COCCO2)c2ccc(OCc3ccccc3)cc2)c1	> 99.5 µM
Cc1csc(COc2cccc([C@H](NC(=O)OCc3ccccc3)C(=O)Nc3cccc(CN)c3)c2)n1	27.2 µM
Cc1[nH]c2ccccc2c1CN1CCC(c2nc3ccccc3s2)CC1	> 99.5 µM
C[C@H]1CC[C@H](CS(=O)(=O)N[C@H](C(=O)Nc2cccc(CN)c2)c2ccc(OCc3ccccc3)cc2)CC1	34.2 µM
COCc1ccccc1Nc1ccc(S(=O)(=O)Nc2ccc(Cl)cc2C(=O)O)cn1	> 99.5 µM
NCc1cccc(NC(=O)[C@H](NS(=O)(=O)Cc2ccccc2)c2ccc(OCc3ccccc3)cc2)c1	> 99.5 µM
NC[C@H]1CC[C@H](CNC(=O)c2cc(Cl)cc(NC(=O)OCc3ccccc3)c2)CC1	> 99.5 µM
NCc1cccc(NC(=O)[C@H](NC(=O)OCc2ccccc2)c2cccc(OCc3ccccn3)c2)c1	> 99.5 µM
NCc1ccc(Oc2ccc(S(=O)(=O)Nc3ccc(Cl)cc3C(=O)O)cc2)cc1	> 99.5 µM
